Results on one molecule are retold here after patent US12030897B2, “Pyrrolo[2,1-f][1,2,4]triazine derivatives serving as selective HER2 inhibitors and application thereof” (MEDSHINE DISCOVERY INC., priority 2018, dated 2024).

Data set [1] is described as follows: Pharmacokinetic properties in rats. The data set is classed as in vivo. As to conditions: male, SD. As for the experimental part:
The tested compound was dissolved in 10% NMP/10% polyethylene glycol-15-hydroxystearate/80% water, vortexed and sonicated to prepare a 2.5 mg/mL clear solution, which was filtered through a millipore filter for use. Three male SD rats were administered intravenously with the candidate compound solution at a dose of 5 mg/kg. The tested compound was dissolved in 10% polyethylene glycol-15-hydroxystearate/90% water (50 mM citrate buffer, pH 3.0), adjusted to pH of about 3.5, vortexed and sonicated to prepare a 5 mg/ml clear solution, which was filtered through a millipore filter for use. Three male SD rats were administered orally with the candidate compound solution at a dose of 50 mg/kg. The whole-blood for a certain period of time was collected to prepare plasma. The drug concentration was analyzed by the LC-MS/MS method, and the pharmacokinetic parameters were calculated by the Phoenix WinNonlin software (Pharsight, USA).

A further data set has as its target CYP1A2 (Homo sapiens (Human), UniProt P05177). Format: in vitro ADME. As to conditions: microsomes. As for the experimental part:
(§1) The object of this study was to evaluate the effect of Example 4 on the activities of five isoenzymes (CYP1A2, CYP2C9, CYP2C19, CYP2D6 and CYP3A4) of human liver microsomal cytochrome P450 (CYP) using an in vitro test system. The specific probe substrates of CYP450 isozymes were incubated with human liver microsomes and different concentrations of Example 4, and reduced nicotinamide adenine dinucleotide phosphate (NADPH) was added to initiate the reaction. After the reaction was completed, the samples were treated, and liquid chromatography tandem mass spectrometry (LC/MS/MS) was used to detect the metabolites produced by specific substrates.

The next data set has as its target CYP2D6 (Homo sapiens (Human), UniProt P10635). In words: Inhibition of human liver microsomal cytochrome P450 isoenzyme CYP2D6. Format: in vitro ADME. As to conditions: human liver microsomes. As to the method:
as §1

Sequence of CYP2D6 (P10635 whole entry): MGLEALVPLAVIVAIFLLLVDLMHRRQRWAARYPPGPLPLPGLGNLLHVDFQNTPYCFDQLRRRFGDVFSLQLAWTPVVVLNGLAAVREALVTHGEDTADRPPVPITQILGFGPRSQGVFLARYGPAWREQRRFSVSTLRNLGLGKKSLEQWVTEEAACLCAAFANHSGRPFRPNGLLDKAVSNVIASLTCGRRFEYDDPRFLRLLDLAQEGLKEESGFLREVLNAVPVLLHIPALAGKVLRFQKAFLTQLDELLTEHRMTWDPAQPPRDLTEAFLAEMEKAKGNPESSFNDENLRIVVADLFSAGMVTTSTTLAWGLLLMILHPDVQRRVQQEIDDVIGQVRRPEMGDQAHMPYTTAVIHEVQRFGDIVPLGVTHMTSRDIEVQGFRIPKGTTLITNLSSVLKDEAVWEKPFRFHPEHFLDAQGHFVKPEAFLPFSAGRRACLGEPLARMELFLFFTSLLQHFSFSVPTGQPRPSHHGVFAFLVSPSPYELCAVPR
Sequence of CYP1A2 (P05177 whole entry): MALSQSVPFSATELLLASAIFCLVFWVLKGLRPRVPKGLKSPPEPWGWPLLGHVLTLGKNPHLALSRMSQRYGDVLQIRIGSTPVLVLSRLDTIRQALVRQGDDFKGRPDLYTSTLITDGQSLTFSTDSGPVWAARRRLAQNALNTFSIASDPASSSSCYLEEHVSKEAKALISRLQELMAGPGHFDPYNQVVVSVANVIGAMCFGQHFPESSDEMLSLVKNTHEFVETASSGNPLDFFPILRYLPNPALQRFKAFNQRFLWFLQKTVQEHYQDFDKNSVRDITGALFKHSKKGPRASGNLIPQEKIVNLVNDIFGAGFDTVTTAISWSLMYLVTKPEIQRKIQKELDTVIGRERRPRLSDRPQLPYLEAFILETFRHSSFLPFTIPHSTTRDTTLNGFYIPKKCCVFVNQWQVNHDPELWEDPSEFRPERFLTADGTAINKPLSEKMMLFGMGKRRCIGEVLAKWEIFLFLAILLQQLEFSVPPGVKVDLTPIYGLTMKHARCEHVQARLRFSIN

Turning to `Cc1cc(Nc2ncnn3ccc(CN4CCC(N)CC4)c23)ccc1Oc1ccn2ncnc2c1` [Example 4], the clearance in data set [1] (plasma, rat, IV 5 mg/kg) came out at 25.4 mL/min/kg. In addition, the Vd in data set [1] (plasma, rat, IV 5 mg/kg, read-out: Vdss) came to 5.86 L/kg. In addition, in data set [1] (plasma, rat, PO 50 mg/kg, read-out: F (oral bioavailability)), the bioavailability stood at 49.6%. Moreover, in data set [1] (rat plasma, IV 5 mg/kg), the area under the curve AUC(0-inf) came out at 6.95 µM·h, the area under the curve AUC(0-t) was determined as 6.91 µM·h and the half-life was 3.34 h. Also, in data set [1] (rat plasma, PO 50 mg/kg), the area under the curve AUC(0-inf) amounted to 34.9 µM·h, the area under the curve AUC(0-t) worked out at 34.3 µM·h, the highest level (Cmax) was 3.63 µM and the Tmax came out at 3.33 h. The same molecule had a half-life in data set [1] (rat plasma, PO 50 mg/kg) of 3.9 h. Also, at CYP1A2, the IC50 is > 50 µM. On CYP2D6, inhibition was half-maximal at 25.4 µM (IC50).

What is called clearance is the rate of elimination divided by the concentration. One may read the bioavailability as the share of a dose that reaches the circulation, judged against a reference dose that is usually intravenous. The term AUC(0-inf) denotes total exposure, with the tail of the curve extrapolated. Read a high AUC(0-inf) as high exposure. As a reminder, the AUC(0-t) is the area under the concentration-time curve up to a stated or last time point. A lower AUC(0-t) goes with less exposure. By half-life is commonly meant the time in which the quantity being followed falls by half. Higher therefore signals slow loss. A word on the Cmax: it is the maximum level reached in the sampled fluid or tissue. Usually Tmax stands for the time from dosing to the highest level. As usually defined, the IC50 is the midpoint of a concentration-inhibition curve. The low end stands for inhibition by little substance, the high end for a need for much substance.
